Series [1] is classed as physicochemical. The note with it: 0.15 M NaClO4, 25 °C.
Series [2] in a line: Protonation constants of Bi^III complexes by pH-potentiometry. It counts as physicochemical. The following applies: 0.15 M NaClO4, 25 °C.
The conditions of series [3]: 0.6 M NaClO4, 25 °C; cited from earlier work.

Where two headings read alike, the source gives them in different places.

Take `O=C([O-])CCCCC1(N(CC(=O)[O-])CC(=O)[O-])CN(CC(=O)[O-])CCN(CC(=O)[O-])C1.[Bi+3]` [[Bi(AAZTA‐C4‐COO^−)]^2−]: the “logK BiL (stability constant)” value is reported as 28.75 in series [1] and 28.75(8) in series [1] (listed as B). In addition, the “logK Bi(HL) (protonation constant of complex)” value in series [2] was 4.74(4).
For `O=C([O-])CN(CCN(CC(=O)[O-])CC(=O)[O-])CCN(CC(=O)[O-])CC(=O)[O-].[Bi+3]` [[Bi(DTPA)]^2−], the “logK BiL (stability constant)” value in series [3] is listed as 29.29.
As for `CC1(N(CC(=O)[O-])CC(=O)[O-])CN(CC(=O)[O-])CCN(CC(=O)[O-])C1.[Bi+3]` [[Bi(AAZTA)]^−], the results for the “logK BiL (stability constant)” value in series [1] and in series [1] (listed as A) were 26.45 and 26.45(6), respectively. The “logK Bi(HL) (protonation constant of complex)” value in series [2] is 1.63(3).

These data come from article PMC9828418 (Angewandte Chemie (International Ed. in English), 2022).
